# Measured values reported in patent US7511133B2, “Adenosine A3 receptor agonists” (King Pharmaceuticals Research and Development, Inc., priority 2003, dated 2009).
# pKi: −log10 of the molar value. Read-outs that look alike come from different tables or passages of the source.
# Key:
# [1] = target: T1, human A2A adenosine receptors (Homo sapiens, UniProt P29274); assay: Displacement of [^3H]CGS21680 binding, human A2A adenosine receptors in CHO cells (agonist radioligand)
# T1 construct: expressed in transfected cells; host or cells: CHO cells
# T1 sequence (P29274 whole entry): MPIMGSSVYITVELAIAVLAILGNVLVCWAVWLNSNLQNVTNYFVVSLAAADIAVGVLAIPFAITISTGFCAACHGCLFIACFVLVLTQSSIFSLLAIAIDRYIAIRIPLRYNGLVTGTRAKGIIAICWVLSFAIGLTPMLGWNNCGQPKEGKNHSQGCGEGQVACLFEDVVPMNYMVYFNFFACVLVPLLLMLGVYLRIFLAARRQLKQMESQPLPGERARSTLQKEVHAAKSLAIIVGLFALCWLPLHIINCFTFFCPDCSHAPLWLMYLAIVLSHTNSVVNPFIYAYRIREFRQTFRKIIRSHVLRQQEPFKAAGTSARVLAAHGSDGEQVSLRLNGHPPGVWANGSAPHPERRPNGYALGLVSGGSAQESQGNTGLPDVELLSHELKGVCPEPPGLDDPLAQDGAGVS
# human A2A receptors = target: T2, human A2A receptors (Homo sapiens, UniProt P29274); assay: [^3H] SCH58261 binding to human A2A receptors expressed in CHO cells (antagonist radioligand)
# T2 construct: expressed in transfected cells; host or cells: CHO cells
# T2 sequence (P29274 whole entry): as above
# Description: (§1) Binding assay methodology for the human data with antagonist radioligands. […] Arch. Pharmacol. 357: 1-9, (1998). The cells were grown adherently and maintained in Dulbecco's Modified Eagles Medium with nutrient mixture F12 (DMEM/F12) without nucleosides, containing 10% fetal calf serum, penicillin (100 U/ml), streptomycin (100 μg/ml), L-glutamine (2 mM) and Geneticin (G418, 0.2 mg/ml) at 37° C. in 5% CO2/95% air. Cells were split 2 or 3 times weekly at a ratio between 1:5 and 1:20. For membrane preparation the culture medium was removed and the cells were washed with PBS and scraped off T75 flasks in ice-cold hypotonic buffer (5 mM Tris HCl, 2 mM EDTA, pH 7.4). The cell suspension was homogenized with Polytron and the homogenate was spun for 10 min at 1,000×g. The supernatant was then centrifuged for 30 min at 100,000×g. The membrane pellet was resuspended in 50 mM Tris HCl buffer pH 7.4 (for A3 adenosine receptors: 50 mM Tris HCl, 10 mM MgCl2, 1 mM EDTA) and incubated with 3 UI/ml of Adenosine deaminase for 30 min at 37° C. Then the suspension was frozen at −80° C. HEK 293 cells transfected with the human recombinant A2B adenosine receptor were obtained from Receptor Biology, Inc. (Beltsville, Md., USA).
# Binding of [^3H]-SCH 58261 to CHO cells transfected with the human recombinant A2A adenosine receptors (50 μg of protein/assay) was performed using 0.2 ml 50 mM Tris HCl buffer, 10 mM MgCl2 pH 7.4 and at least 6-8 different concentrations of antagonists studied for an incubation time of 30 min at 25° C.
# human hA2B receptors = target: T3, human hA2B receptors (Homo sapiens, UniProt P29275); assay: [^3H] DPCPX binding to human hA2B receptors expressed in HEK293 cells (antagonist radioligand)
# T3 construct: host or cells: HEK 293 cells
# T3 sequence (P29275 1-332): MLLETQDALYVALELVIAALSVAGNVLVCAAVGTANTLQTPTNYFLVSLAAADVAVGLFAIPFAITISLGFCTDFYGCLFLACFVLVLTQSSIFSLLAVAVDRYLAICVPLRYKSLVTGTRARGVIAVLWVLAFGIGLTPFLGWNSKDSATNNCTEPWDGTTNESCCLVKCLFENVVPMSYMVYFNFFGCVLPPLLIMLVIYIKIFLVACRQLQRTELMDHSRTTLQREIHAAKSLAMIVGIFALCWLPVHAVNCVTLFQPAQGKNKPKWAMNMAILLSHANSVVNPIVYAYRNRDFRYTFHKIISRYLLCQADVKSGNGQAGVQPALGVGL
# Description: as §1
# Competition experiments of [^3H]-DPCPX to HEK-293 cells transfected with the human recombinant A^2B adenosine receptor were performed for 60 min at 25° C. in 0.1 ml of 50 mM Tris HCl buffer, 10 mM MgCl2, 1 mM EDTA, 0.1 mM benzamidine pH 7.4, 2 IU/ml adenosine deaminase containing 34 nM [^3H]-DPCPX, diluted membranes (20 μg of protein/assay) and at least 6-8 different concentrations of selected compounds.
# human A3 receptors = target: T4, human A3 receptors (Homo sapiens, UniProt P0DMS8); assay: [^3H] MRE3008F20 binding to human A3 receptors expressed in CHO cells (antagonist radioligand)
# T4 construct: expressed in transfected cells; host or cells: CHO cells
# T4 sequence (P0DMS8 1-318): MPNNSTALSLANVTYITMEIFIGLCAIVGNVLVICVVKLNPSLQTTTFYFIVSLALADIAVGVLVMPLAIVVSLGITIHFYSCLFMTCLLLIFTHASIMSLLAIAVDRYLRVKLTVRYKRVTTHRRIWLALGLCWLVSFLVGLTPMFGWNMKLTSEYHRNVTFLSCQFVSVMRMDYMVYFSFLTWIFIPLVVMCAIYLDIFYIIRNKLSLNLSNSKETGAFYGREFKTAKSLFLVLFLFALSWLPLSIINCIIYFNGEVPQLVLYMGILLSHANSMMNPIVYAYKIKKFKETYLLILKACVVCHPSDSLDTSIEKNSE
# Description: as §1
# Binding of [^3H]-MRE 3008F20 to CHO cells transfected with the human recombinant A3 adenosine receptors was performed according to Varani et al., 2000. Competition experiments were carried out in duplicate in a final volume of […] in test tubes containing 1 nM [^3H]-MRE 3008F20, 50 mM Tris HCl buffer, 10 mM MgCl2, 1 mM EDTA pH 7.4 and 100 μl of diluted membranes (50 μg of protein/assay) and at least 8-10 different concentrations of examined antagonists. Incubation time was 120 min at 4° C., according to the results of previous time-course experiments.
# [2] = target: T5, human A3 adenosine receptors (Homo sapiens, UniProt P0DMS8)
# T5 sequence (P0DMS8 1-318): T4 sequence (P0DMS8 1-318)
# human A1 receptors = target: T6, human A1 receptors (Homo sapiens, UniProt P30542); assay: [^3H] DPCPX binding to human A1 receptors expressed in CHO cells (antagonist radioligand)
# T6 construct: expressed in transfected cells; host or cells: CHO cells
# T6 sequence (P30542 1-326): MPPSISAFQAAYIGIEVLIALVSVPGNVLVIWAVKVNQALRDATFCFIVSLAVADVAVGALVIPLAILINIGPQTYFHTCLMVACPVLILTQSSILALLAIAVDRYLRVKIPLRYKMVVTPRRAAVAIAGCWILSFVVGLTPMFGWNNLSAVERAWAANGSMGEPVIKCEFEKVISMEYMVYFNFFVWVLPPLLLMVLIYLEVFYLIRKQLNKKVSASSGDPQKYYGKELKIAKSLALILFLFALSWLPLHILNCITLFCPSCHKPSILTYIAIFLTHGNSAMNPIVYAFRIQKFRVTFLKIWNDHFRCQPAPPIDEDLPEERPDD
# Description: as §1, with “Pharmacol. 357: 1-9, (1998).” left out
# Displacement experiments were performed for 120 min at 25° C. in 0.2 ml of 50 mM Tris HCl buffer pH 7.4 containing 1 nM [3H]-DPCPX, diluted membranes (50 μg of protein/assay) and at least 6-8 different concentrations of antagonists studied. Non-specific binding was determined in the presence of 10 μM of CHA and this was always ≦10% of the total binding.
# [3] = target: T7, human A1 adenosine receptors (Homo sapiens, UniProt P30542); assay: Displacement of [^3H]CHA binding, human A1 adenosine receptors in CHO cells (agonist radioligand)
# T7 sequence (P30542 1-326): T6 sequence (P30542 1-326)
# [4] = human A2A, CHO cells, [^3H]CGS21680, read-out: Ki(A2A). Displacement of [^3H]CGS21680 binding to human A2A adenosine receptors exp. in CHO cells.
# [5] = human A2A, CHO cells, antagonist radioligand, read-out: [^3H] SCH58261 binding to human A2A receptors expressed in CHO cells Ki
# [6] = human A2B, HEK293 cells, antagonist radioligand, read-out: [^3H] DPCPX binding to human hA2B receptors expressed in HEK293 cells Ki
# [7] = human A3, CHO cells, antagonist radioligand, read-out: [^3H] MRE3008F20 binding to human A3 receptors expressed in CHO cells Ki
# [8] = human A1, CHO cells, antagonist radioligand, read-out: [^3H] DPCPX binding to human A1 receptors expressed in CHO cells Ki
Structure (SMILES),"pKi [1, 4]",pKi (human A2A receptors; [5]),pKi (human hA2B receptors; [6]),pKi (human A3 receptors; [7]),melting point,pKi [2],pKi (human A1 receptors; [8]),pKi [3],pKi [1],pKi (human A1 receptors),pKi (human A2A receptors),pKi (human hA2B receptors),pKi (human A3 receptors)
"C=CCN(C)S(=O)(=O)c1ccc(NC(=O)Nc2ncnc3c2ncn3[C@@H]2O[C@H](C(=O)NCC)[C@@H](O)[C@H]2O)cc1 [Compound 96, 1-Deoxy-1-[6-[[[[4-[N-(allyl)-N-(methyl)amino-sulfonyl]phenyl]amino]carbonyl]amino]-9H-purin-9-yl]-N-ethyl-β-D-ribofuranuronamide]",< 6.00,< 6.00,< 6.00,7.30,181 to 185 °C,8.00,–,–,–,–,–,–,–
"CCNC(=O)[C@H]1O[C@@H](n2cnc3c(NC(=O)Nc4ccc(S(=O)(=O)N5CCCCC5)cc4)ncnc32)[C@H](O)[C@@H]1O [Compound 83, 1-Deoxy-1-[6-[[[[4-[(piperidin-1-yl)sulfonyl]phenyl]amino]carbonyl]amino]-9H-purin-9-yl]-N-ethyl-β-D-ribofuranuronamide]",< 6.00,< 6.00,< 6.00,–,176 to 178 °C,–,–,–,–,–,–,–,–
"CCNC(=O)[C@H]1O[C@@H](n2cnc3c(NC(=O)Nc4ccc(S(=O)(=O)NC5CCCCC5)cc4)ncnc32)[C@H](O)[C@@H]1O [Compound 94, 1-Deoxy-1-[6-[[[[4-[N-(cyclohexyl)aminosulfonyl]phenyl]-amino]carbonyl]amino]-9H-purin-9-yl]-N-ethyl-β-D-ribofuranuronamide]",< 6.00,< 6.00,< 6.00,–,179 to 183 °C,–,< 6.00,6.46,–,–,–,–,–
"CCNC(=O)[C@H]1O[C@@H](n2cnc3c(NC(=O)Nc4ccc(S(=O)(=O)NC5CCCC5)cc4)ncnc32)[C@H](O)[C@@H]1O [Compound 95, 1-Deoxy-1-[6-[[[[4-[N-(cyclopentyl)aminosulfonyl]phenyl]-amino]carbonyl]amino]-9H-purin-9-yl]-N-ethyl-β-D-ribofuranuronamide]",< 6.00,< 6.00,< 6.00,6.85,–,7.62,< 6.00,6.38,–,–,–,–,–
"CCNC(=O)[C@H]1O[C@@H](n2cnc3c(NC(=O)Nc4ccc(S(=O)(=O)Nc5ccc(OC)cc5)cc4)ncnc32)[C@H](O)[C@@H]1O [Compound 88, 1-Deoxy-1-[6-[[[[4-[N-(4-methoxyphenyl)aminosulfonyl]phenyl]-amino]carbo-nyl]amino]-9H-purin-9-yl]-N-ethyl-β-D-ribofuranuronamide]",< 6.00,< 6.00,< 6.00,–,–,–,< 6.00,6.55,–,–,–,–,–
"CCNC(=O)[C@H]1O[C@@H](n2cnc3c(NC(=O)Nc4ccc(S(=O)(=O)N(CCCl)CCCl)cc4)ncnc32)[C@H](O)[C@@H]1O [Compound 91, 1-Deoxy-1-[6-[[[[4-[N,N-bis(2-chloroethyl)aminosulfonyl]phenyl]-amino]carbonyl]amino]-9H-purin-9-yl]-N-ethyl-β-D-ribofuranuronamide]",–,–,–,–,–,7.64,–,6.14,< 6.00,< 6.00,< 6.00,< 6.00,6.92
"CCNC(=O)[C@H]1O[C@@H](n2cnc3c(NC(=O)Nc4ccc(S(=O)(=O)NCc5ccccc5)cc4)ncnc32)[C@H](O)[C@@H]1O [Compound 86, 1-Deoxy-1-[6-[[[[4-[N-(benzyl)aminosulfonyl]phenyl]amino]-carbonyl]amino]-9H-purin-9-yl]-N-ethyl-β-D-ribofuranuronamide]",< 6.00,< 6.00,< 6.00,–,–,–,< 6.00,6.52,–,–,–,–,–
"CCNC(=O)[C@H]1O[C@@H](n2cnc3c(NC(=O)Nc4ccc(S(=O)(=O)N5CCCC5)cc4)ncnc32)[C@H](O)[C@@H]1O [Compound 90, 1-Deoxy-1-[6-[[[[4-[(pyrrolidin-1-yl)sulfonyl]phenyl]amino]carbonyl]amino]-9H-purin-9-yl]-N-ethyl-β-D-ribofuranuronamide]",< 6.00,< 6.00,< 6.00,7.00,204 to 205 °C,7.66,–,–,–,–,–,–,–
